According to US12319709B2, “Diaryl trehalose compounds and uses thereof” (THE UNIVERSITY OF MONTANA, priority 2018, dated 2025):

Tests used:
[1] = tested on: Balb/c mice; assay: i.m. immunization of Balb/c mice with M72 antigen and liposomal adjuvant; splenocyte restimulation, intracellular cytokine staining; type: in vivo, mouse; details: for antigen-specific CD4+ and CD8+ IL-17A producing cells (Th17 response): M72 restimulated splenocytes, TDB at highest dose
[2] = tested on: RAW264.7 cells; assay: Cytokine (TNFα) response of mouse macrophage cell line; Table 2 'Murine'; type: cell-based; parameters: Maximum cytokine response Murine: unit not given here; details: NR = no response
Description: Compounds were also tested in a mouse macrophage cell line (FIG. 4B). RAW264.7 cells were subjected to increasing concentrations of the compounds and assessed for production of the cytokine TNFα.

[3] = tested on: peripheral blood mononuclear cells (PBMCs); assay: IL-6 induction in fresh human PBMCs; type: cell-based; details: for IL-6 production / activity in fresh PBMCs from multiple donors (in words): compounds in DMSO serially diluted in media, supernatants 18 h after treatment; for Maximum cytokine response h-IL-6 / Minimal Effective Concentration h-IL-6: human IL-6, NR = no response
Summary of the method: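 Fresh human PBMCs incubated at 37 °C with serially diluted compounds delivered in DMSO into medium. IL-6 in supernatants quantified by ELISA 18 h after treatment.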

[4] = tested on: peripheral blood mononuclear cells (PBMCs); assay: Cytokine analysis of supernatants of stimulated, freshly prepared PBMCs; type: cell-based, human; details: compounds solubilized in DMSO
Description: Tumor necrosis factor alpha (TNFα) and IL-6 production in peripheral blood mononuclear cells (PBMCs) was measured after exposure to various concentrations of the DAT compounds synthesized as shown above. Initial studies focused on two different methods of delivery of the DAT compounds to PBMC cultures. In the first delivery method, the indicated derivative compound was dissolved in isopropanol, serially diluted, and then dried to the bottom of a tissue culture plate. In the second delivery method, the indicated derivative compound was dissolved in DMSO and serially diluted into tissue culture media. In each method, PBMCs were added to the compounds and incubated at 37° C. TNFα (FIG. 1A) and IL-6 (FIG. 1B) were measured after 18-24 hours after treatment by ELISA assay.
Supernatants from the freshly prepared PBMCs stimulated with DAT compounds solubilized in DMSO (Example 5A) were analyzed for the cytokines that help drive Th1 cell or Th17 cell adaptive immune responses; IFNγ, IL-12 p70, IL-6, IL-1β, and IL-23. Minimal amounts of IL-12p70 were detected and IFNγ was undetectable. Therefore, both are not reported.

[5] = molecular target: T1, Mincle receptor (Mus musculus, UniProt Q9R0Q8); assay: HEK-Blue Mincle mouse reporter cells, NF-κB SEAP production; type: cell-based
T1 construct: expressed in transfected cells; host or cells: HEK-Blue Mincle reporter cells (HEK293-derived, NF-kB SEAP reporter)
T1 sequence (Q9R0Q8 1-214): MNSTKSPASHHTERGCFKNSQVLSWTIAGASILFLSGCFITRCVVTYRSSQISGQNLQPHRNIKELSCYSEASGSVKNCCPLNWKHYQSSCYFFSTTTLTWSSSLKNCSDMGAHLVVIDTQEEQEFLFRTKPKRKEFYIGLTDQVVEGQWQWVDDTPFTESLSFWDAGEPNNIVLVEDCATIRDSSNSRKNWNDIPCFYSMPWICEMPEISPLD
Description: Compounds were also tested in the commercial reporter Hek-Blue™ cell lines. Hek-Blue™ cells were treated with increasing concentrations of the indicated compound for 18 to 24 hours. Isolated supernatants were measured for NF-κB secreted embryonic alkaline phosphatase (SEAP) production with QUANTI-Blue™ reagent (FIG. 4A). SEAP production was robust for both the mouse and human reporter lines (FIG. 4A), indicating strong signaling through the Mincle receptor in both human and murine systems.

Structure (SMILES) | antigen-specific CD4+ and CD8+ IL-17A producing cells (Th17 response) ([1]; liposomal formulation) | Maximum cytokine response Murine ([2]; listed as 1015) | Minimal Effective Concentration Murine ([2]; listed as 1015) | IL-6 production / activity in fresh PBMCs from multiple donors (in words) [3] | Maximum cytokine response h-IL-6 [3] | Minimal Effective Concentration h-IL-6 [3] | TNFα response in PBMCs (in words) [4] | Maximum cytokine response Murine [2] | Minimal Effective Concentration Murine [2] | IL-2 production compared to controls ([1]; 10 nmol group) | TNFα production compared to controls ([1]; higher doses) | IL-5 production (Th2 response) in restimulated cells ([1]; liposomal formulation, M72 vaccine) | NF-κB SEAP production, mouse reporter line ([5]; 18 to 24 hours, QUANTI-Blue) | potency shift in comparison with other compounds, reporter cells ([5]; HEK-Blue Mincle reporter, compared with PBMC cytokine profiles) | increased potency (EC50) for induction of cytokines relative to other compounds ([3]; human PBMCs)
CCCCCCCCCCCCCCCCCCCCCC(=O)OC[C@H]1O[C@H](O[C@H]2O[C@H](COC(=O)CCCCCCCCCCCCCCCCCCCCC)[C@@H](O)[C@H](O)[C@H]2O)[C@H](O)[C@@H](O)[C@@H]1O [TDB, trehalose dibehenate, reference compound] | induced some IL-17A | – | – | – | – | – | – | – | – | – | – | – | – | – | –
COc1cc(OC)cc(C(=O)OC[C@H]2O[C@H](O[C@H]3O[C@H](COC(=O)c4cc(OC)cc(OC)c4)[C@@H](O)[C@H](O)[C@H]3O)[C@H](O)[C@@H](O)[C@@H]2O)c1 [UM1015, 6,6′-bis-(3,5-dimethoxybenzoate)-α,α-trehalose] | – | 3.5 | 12.3 µM | potent, robust activity in only 3 of 5 donors | 3.6 OD | 111 µM | higher responding | – | – | – | – | – | – | – | –
COc1ccc(/C=C/C(=O)OC[C@H]2O[C@H](O[C@H]3O[C@H](COC(=O)/C=C/c4ccc(OC)c(OC)c4)[C@@H](O)[C@H](O)[C@H]3O)[C@H](O)[C@@H](O)[C@@H]2O)cc1OC [UM1019] | – | – | – | – | 2 OD | 333 µM | higher responding | 2.3 | 111 µM | – | – | – | – | – | –
COc1cc(/C=C/C(=O)OC[C@H]2O[C@H](O[C@H]3O[C@H](COC(=O)/C=C/c4cc(OC)c(OC)c(OC)c4)[C@@H](O)[C@H](O)[C@H]3O)[C@H](O)[C@@H](O)[C@@H]2O)cc(OC)c1OC [UM1020] | – | – | – | – | 1.5 OD | 333 µM | higher responding | 3.2 | 33.3 µM | – | – | – | – | – | –
O=C(/C=C/c1ccc(O)c(O)c1)OC[C@H]1O[C@H](O[C@H]2O[C@H](COC(=O)/C=C/c3ccc(O)c(O)c3)[C@@H](O)[C@H](O)[C@H]2O)[C@H](O)[C@@H](O)[C@@H]1O [UM1021] | – | – | – | induced some cytokine production | 2 OD | 333 µM | higher responding | 3 | 333 µM | – | – | – | – | – | –
COc1cc(C)c(C(=O)OC[C@H]2O[C@H](O[C@H]3O[C@H](COC(=O)c4c(C)cc(OC)cc4OC)[C@@H](O)[C@H](O)[C@H]3O)[C@H](O)[C@@H](O)[C@@H]2O)c(OC)c1 [UM1022] | – | – | – | reproducibly induced potent, robust IL-6 production | 3 OD | 333 µM | higher responding | 3.3 | 37 µM | – | – | – | – | – | –
CC(C)c1cc(C(=O)OC[C@H]2O[C@H](O[C@H]3O[C@H](COC(=O)c4cc(C(C)C)cc(C(C)C)c4O)[C@@H](O)[C@H](O)[C@H]3O)[C@H](O)[C@@H](O)[C@@H]2O)c(O)c(C(C)C)c1 [UM1023, 6,6′-bis-(3,5-di-iso-propylsalisate)-α,α-trehalose] | – | – | – | lower activity | – | – | higher responding | 2.5 | 0.45 µM | – | – | – | – | – | –
CC(C)(C)c1cc(C(=O)OCC2OC(OC3OC(COC(=O)c4cc(C(C)(C)C)cc(C(C)(C)C)c4O)C(O)C(O)C3O)C(O)C(O)C2O)c(O)c(C(C)(C)C)c1 (stereo not drawn) [UM1024, 6,6′-bis-(3,5-di-tert-butylsalisate)-α,α-trehalose] | induced high levels of antigen-specific CD4+ and CD8+ IL17A producing cells | – | – | – | 3.5 OD | 1 µM | higher responding | 3 | 0.45 µM | substantially increased | increased compared to controls | seen in restimulated cells | distinct very high peak at low concentration of compound | did not display a large leftward potency shift | over 1000 ×
CCOc1cc(C(=O)OC[C@H]2O[C@H](O[C@H]3O[C@H](CO)[C@@H](O)[C@H](O)[C@H]3O)[C@H](O)[C@@H](O)[C@@H]2O)cc(OCC)c1OCC [UM1120] | – | – | – | – | 0.3 OD | 100 µM | – | 11 | 2.5 µM | – | – | – | – | – | –
CC(C)(C)c1cc(C(=O)NC[C@H]2O[C@H](O[C@H]3O[C@H](CNC(=O)c4cc(C(C)(C)C)cc(C(C)(C)C)c4)[C@@H](O)[C@H](O)[C@H]3O)[C@H](O)[C@@H](O)[C@@H]2O)cc(C(C)(C)C)c1 [UM1123] | – | – | – | – | 2.7 OD | 33.3 µM | – | 0.13 | 3.3 µM | – | – | – | – | – | –
